In US10596164B2, “Anti-clostridium compounds” (Nederlandse Organisatie voor …, priority 2014, dated 2020):
Converted amounts (≈) assume the structure as drawn. Like-named read-outs stand apart in the source and are kept apart here. Marks after values point to notes of the source that are not given here.

Columns and labels:
[1] = test system: C. difficile ATCC 43599 vegetative cells; experiment: MIC test with asymmetrical compounds on C. difficile vegetative cells; assay type: cell-based, Clostridium difficile; conditions: for MIC: Clostridioides difficile
Method: (§1) Growth inhibition experiments were performed according to the following protocol: […] Microtiter plate wells were filled with 495 microliter of this suspension to which 5 microliter of selected compounds dissolved in DMSO was added (final concentration of each compound was 10 microgram per ml). This was all performed in an anaerobic cabinet. After filling the microtiter plate was sealed and incubated for 22 hours at 37° C. Inhibiting compounds were selected by visually determining growth inhibition. According to the same protocol as in Example 3 asymmetrical compounds were tested on their inhibitory effect of C. difficile, but also on other bacterial species, such as S. aureus and B. cereus. In the below tables the compounds and the MIC values that have been found for the various micro-organisms are listed. In the tests described in Table 4 and 5 the medium indicated as 'flora' is the SIEM medium described in […], Schols H A, Nauta A, Schoterman […]. High-throughput analysis of the impact of antibiotics on the human intestinal microbiota composition.

[2] = test system: C. difficile ATCC 43599 spores; experiment: MIC test with asymmetrical compounds on C. difficile spores; assay type: cell-based, Clostridium difficile; conditions: for MIC: Clostridioides difficile
Method: as §1

[3] = test system: Staphylococcus aureus ATCC 6538; experiment: MIC test with asymmetrical compounds on S. aureus; assay type: cell-based; conditions: ATCC6538, Table 5, read-out: MIC S. aureus ATCC 6538
Method: as §1

[4] = test system: Bacillus cereus ATCC 11778; experiment: MIC test with asymmetrical compounds on B. cereus; assay type: cell-based; conditions: ATCC11778, Table 5, read-out: MIC B. cereus ATCC 11778
Method: as §1

[5] = ATCC43599, 22 h, Table 4, SAB model medium, tested concentrations 1.2 μg/ml-0.03 μg/ml if not indicated otherwise, read-out: MIC veg. cells SAB model medium
[6] = ATCC43599, Table 3, vegetative cells, tested concentrations 10 μg/ml-0.003 μg/ml if not indicated otherwise, read-out: MIC Veg. cells
[7] = ATCC43599, Table 4, flora (SIEM) medium, tested concentrations 1.2 μg/ml-0.03 μg/ml if not indicated otherwise, read-out: MIC veg. cells flora
[8] = ATCC43599, 22 h, Table 4, SAB model medium, tested concentrations 1.2 μg/ml-0.03 μg/ml if not indicated otherwise, read-out: MIC spores SAB model medium
[9] = ATCC43599, Table 3, spores, tested concentrations 10 μg/ml-0.003 μg/ml if not indicated otherwise, read-out: MIC spores
[10] = ATCC43599, Table 4, flora (SIEM) medium, tested concentrations 1.2 μg/ml-0.03 μg/ml if not indicated otherwise, read-out: MIC spores flora
[11] = Table 4, SAB model medium, tested concentrations 1.2 μg/ml-0.03 μg/ml if not indicated otherwise

SMILES | MIC [1, 5] [µg/mL] | MIC [1, 6] [µg/mL] | MIC [1, 7] [µg/mL] | MIC [2, 8] [µg/mL] | MIC [2, 9] [µg/mL] | MIC [2, 10] [µg/mL] | MIC [3] [µg/mL] | MIC [4] [µg/mL] | MIC Veg. cells ([1]; Table 3, vegetative cells, tested concentrations 10 μg/ml-0.003 μg/ml if not indicated otherwise) | MIC veg. cells SAB model medium [1, 11] [µg/mL] | MIC veg. cells flora ([1]; Table 4, flora (SIEM) medium, tested concentrations 1.2 μg/ml-0.03 μg/ml if not indicated otherwise) [µg/mL] | MIC spores ([2]; Table 3, spores, tested concentrations 10 μg/ml-0.003 μg/ml if not indicated otherwise) | MIC spores SAB model medium [2, 11] [µg/mL]
O=C1NC(=O)c2ccc3c4c(ccc1c24)C(=O)N(c1cccc(O)c1)C3=O [20141155PBmol08] | 0.15 to 0.3 (≈ 0.419 to 0.837 µM) | 0.07 to 0.15 (≈ 0.195 to 0.419 µM) | 0.6 to 1.2 (≈ 1.67 to 3.35 µM) | 0.07 to 0.15 (≈ 0.195 to 0.419 µM) | 0.03 to 0.07 (≈ 0.0837 to 0.195 µM) | 0.6 to 1.2 (≈ 1.67 to 3.35 µM) | > 100 | 10 (≈ 27.9 µM) |  |  |  |  | 
O=C1NC(=O)c2ccc3c4c(ccc1c24)C(=O)N(c1ccccc1)C3=O [4456-3445 (6739753)] |  |  |  |  |  | 0.6 to 1.2 (≈ 1.75 to 3.51 µM) |  |  | <0.3* ug/ml | <0.3 | 0.6 to 1.2 | <0.3* ug/ml | <0.3
O=C1NC(=O)c2ccc3c4c(ccc1c24)C(=O)N(c1ccc(O)cc1)C3=O [20141155PBmol37] | 0.07 to 0.15 (≈ 0.195 to 0.419 µM) | 0.07 to 0.15 (≈ 0.195 to 0.419 µM) | 0.6 to 1.2 (≈ 1.67 to 3.35 µM) | 0.07 to 0.15 (≈ 0.195 to 0.419 µM) | 0.03 to 0.07 (≈ 0.0837 to 0.195 µM) | 0.3 to 0.6 (≈ 0.837 to 1.67 µM) | 40 (≈ 112 µM) | 4 (≈ 11.2 µM) |  |  |  |  | 
COc1ccc(OC)c(N2C(=O)c3ccc4c5c(ccc(c35)C2=O)C(=O)NC4=O)c1 [20141155PBmol46] | 0.07 to 0.15 (≈ 0.174 to 0.373 µM) | 0.07 to 0.15 (≈ 0.174 to 0.373 µM) | 0.6 to 1.2 (≈ 1.49 to 2.98 µM) | 0.07 to 0.15 (≈ 0.174 to 0.373 µM) | 0.03 to 0.07 (≈ 0.0746 to 0.174 µM) | 0.6 to 1.2 (≈ 1.49 to 2.98 µM) | 10 (≈ 24.9 µM) | 4 (≈ 9.94 µM) |  |  |  |  | 

Further lines, results first:

MIC [1, 5] [µg/mL] | MIC [1, 6] [µg/mL] | MIC [1, 7] [µg/mL] | MIC [2, 8] [µg/mL] | MIC [2, 9] [µg/mL] | MIC [2, 10] [µg/mL] | MIC [3] [µg/mL] | MIC [4] [µg/mL] | MIC Veg. cells ([1]; Table 3, vegetative cells, tested concentrations 10 μg/ml-0.003 μg/ml if not indicated otherwise) | MIC veg. cells SAB model medium [1, 11] [µg/mL] | MIC veg. cells flora ([1]; Table 4, flora (SIEM) medium, tested concentrations 1.2 μg/ml-0.03 μg/ml if not indicated otherwise) [µg/mL] | MIC spores ([2]; Table 3, spores, tested concentrations 10 μg/ml-0.003 μg/ml if not indicated otherwise) | MIC spores SAB model medium [2, 11] [µg/mL] | SMILES
0.6 to 1.2 (≈ 1.69 to 3.39 µM) | 0.3 to 0.6 (≈ 0.847 to 1.69 µM) | 0.3 to 0.6 (≈ 0.847 to 1.69 µM) | 0.3 to 0.6 (≈ 0.847 to 1.69 µM) | 0.3 to 0.6 (≈ 0.847 to 1.69 µM) | 0.6 to 1.2 (≈ 1.69 to 3.39 µM) |  |  |  |  |  |  |  | O=C1c2ccc3c4c(ccc(c24)C(=O)N1CCO)C(=O)N(CCO)C3=O [A0547/0025269]
 | 0.03 to 0.07 (≈ 0.0852 to 0.199 µM) | 0.15 to 0.3 (≈ 0.426 to 0.852 µM) | 0.03 to 0.07 (≈ 0.0852 to 0.199 µM) | 0.01 to 0.03 (≈ 0.0284 to 0.0852 µM) | 0.3 to 0.6 (≈ 0.852 to 1.7 µM) | > 100 | 40 (≈ 114 µM) |  |  |  |  |  | CC(=O)OCCN1C(=O)c2ccc3c4c(ccc(c24)C1=O)C(=O)NC3=O [20141155PBmol21]
0.07 to 0.15 (≈ 0.204 to 0.437 µM) | 0.07 to 0.15 (≈ 0.204 to 0.437 µM) | 0.15 to 0.3 (≈ 0.437 to 0.874 µM) | 0.07 to 0.15 (≈ 0.204 to 0.437 µM) | 0.07 to 0.15 (≈ 0.204 to 0.437 µM) | 0.3 to 0.6 (≈ 0.874 to 1.75 µM) | 40 (≈ 117 µM) | 4 (≈ 11.7 µM) |  |  |  |  |  | O=C1NC(=O)c2ccc3c4c(ccc1c24)C(=O)N(c1ccccn1)C3=O [20141155PBmol18]
< 0.3 | < 0.3 | < 0.3 | < 0.3 | < 0.3 | < 0.3 |  |  |  |  |  |  |  | Cc1ncc([N+](=O)[O-])n1CCO [Metronadizol, reference compound]
 |  |  |  |  |  | > 100 | > 100 |  |  |  |  |  | O=C1NC(=O)c2ccc3c4c(ccc1c24)C(=O)N(c1ccncc1)C3=O [20141155PBmol20]
